Patent US11813285B2, “Stable pharmaceutical composition comprising esomeprazole and sodium bicarbonate” (CHONG KUN DANG PHARMACEUTICAL CORP., priority 2018, dated 2023)
Where two headings read alike, the source gives them in different places. Values belong to the molecule of their own block, whether it stands above or below them.

Tests used:
[1] = Stability test of esomeprazole and omeprazole according to pH; type: physicochemical; conditions: in % (unit assumed)
Procedure: <Analysis method> A) Detector: UV-Visible spectrophotometer (measurement wavelength:280 nm) B) Column: Inertsil C8-3 (4.6×150 mm, 5 μm) or equivalent column C) Injection amount: 20 μl D) Flow rate: 1.5 mL/min E) Column temperature: Constant temperature near 40° C. F) Sample temperature: Constant temperature near 10° C. […] H) Mobile phase: […] The buffer solution at pH 7.6 was prepared as follows: 0.725 g of sodium dihydrogen phosphate monohydrate (NaH2PO4.H2O) and 4.472 g of anhydrous disodium hydrogen phosphate (Na2HPO4) were weighed to be put in an 1 L volumetric flask and dissolved in purified water, followed by filling the flask with purified water up to the calibration mark. 250 mL of the liquid was taken to be put in an 1 L volumetric flask, followed by filling the flask with purified water up to the calibration mark and adjusting the pH to 7.6 with phosphoric acid.

[2] = for pH of simulated gastric juice: 200 mL simulated gastric juice + 200 mL purified water, 37° C.
Procedure: A pH was measured according to the change of the dose of sodium bicarbonate in a solution (37° C.) where 200 mL of purified water was put in 200 mL of simulated gastric juice.

- assay of esomeprazole and omeprazole according to pH ([1]; buffer pH 4.0, 5 min): 57.2
- assay of esomeprazole and omeprazole according to pH ([1]; buffer pH 4.0, 10 min): 29.4
- assay of esomeprazole and omeprazole according to pH ([1]; buffer pH 4.0, 15 min): 15.3
- assay of esomeprazole and omeprazole according to pH ([1]; buffer pH 4.0, 30 min): 6.7
- assay of esomeprazole and omeprazole according to pH ([1]; buffer pH 4.0, 45 min): 1.6
- assay of esomeprazole and omeprazole according to pH ([1]; buffer pH 4.0, 60 min): 0.8
- assay of esomeprazole and omeprazole according to pH ([1]; buffer pH 4.0, 120 min): 0.1
- assay of esomeprazole and omeprazole according to pH ([1]; buffer pH 6.0, 5 min): 74.9
- assay of esomeprazole and omeprazole according to pH ([1]; buffer pH 6.0, 10 min): 74.2
- assay of esomeprazole and omeprazole according to pH ([1]; buffer pH 6.0, 15 min): 71.7
- assay of esomeprazole and omeprazole according to pH ([1]; buffer pH 6.0, 30 min): 69.6
- assay of esomeprazole and omeprazole according to pH ([1]; buffer pH 6.0, 45 min): 65.4
- assay of esomeprazole and omeprazole according to pH ([1]; buffer pH 6.0, 60 min): 64.1
- assay of esomeprazole and omeprazole according to pH ([1]; buffer pH 6.0, 120 min): 55.1
- assay of esomeprazole and omeprazole according to pH ([1]; buffer pH 6.8, 5 min): 91.5
- assay of esomeprazole and omeprazole according to pH ([1]; buffer pH 6.8, 10 min): 90.5
- assay of esomeprazole and omeprazole according to pH ([1]; buffer pH 6.8, 15 min): 89.9
- assay of esomeprazole and omeprazole according to pH ([1]; buffer pH 6.8, 30 min): 89.8
- assay of esomeprazole and omeprazole according to pH ([1]; buffer pH 6.8, 45 min): 88.8
- assay of esomeprazole and omeprazole according to pH ([1]; buffer pH 6.8, 60 min): 88.3
- assay of esomeprazole and omeprazole according to pH ([1]; buffer pH 6.8, 120 min): 85.5
- assay of esomeprazole and omeprazole according to pH ([1]; buffer pH 7.0, 5 min): 100.5
- assay of esomeprazole and omeprazole according to pH ([1]; buffer pH 7.0, 10 min): 99.0
- assay of esomeprazole and omeprazole according to pH ([1]; buffer pH 7.0, 15 min): 98.9
- assay of esomeprazole and omeprazole according to pH ([1]; buffer pH 7.0, 30 min): 98.2
- assay of esomeprazole and omeprazole according to pH ([1]; buffer pH 7.0, 45 min): 97.9
- assay of esomeprazole and omeprazole according to pH ([1]; buffer pH 7.0, 60 min): 97.5
- assay of esomeprazole and omeprazole according to pH ([1]; buffer pH 7.0, 120 min): 95.8
- assay of esomeprazole and omeprazole according to pH ([1]; buffer pH 7.3, 5 min): 99.8
- assay of esomeprazole and omeprazole according to pH ([1]; buffer pH 7.3, 10 min): 100.0
- assay of esomeprazole and omeprazole according to pH ([1]; buffer pH 7.3, 15 min): 99.9
- assay of esomeprazole and omeprazole according to pH ([1]; buffer pH 7.3, 30 min): 99.8
- assay of esomeprazole and omeprazole according to pH ([1]; buffer pH 7.3, 45 min): 99.8
- assay of esomeprazole and omeprazole according to pH ([1]; buffer pH 7.3, 60 min): 99.8
- assay of esomeprazole and omeprazole according to pH ([1]; buffer pH 7.3, 120 min): 99.86
- assay of esomeprazole and omeprazole according to pH ([1]; buffer pH 7.5, 5 min): 100.5
- assay of esomeprazole and omeprazole according to pH ([1]; buffer pH 7.5, 10 min): 99.7
- assay of esomeprazole and omeprazole according to pH ([1]; buffer pH 7.5, 15 min): 99.7
- assay of esomeprazole and omeprazole according to pH ([1]; buffer pH 7.5, 30 min): 99.4
- assay of esomeprazole and omeprazole according to pH ([1]; buffer pH 7.5, 45 min): 99.2
- assay of esomeprazole and omeprazole according to pH ([1]; buffer pH 7.5, 60 min): 98.9
- assay of esomeprazole and omeprazole according to pH ([1]; buffer pH 7.5, 120 min): 98.2
- assay of esomeprazole and omeprazole according to pH ([1]; buffer pH 8.0, 15 min): 99.7
- assay of esomeprazole and omeprazole according to pH ([1]; buffer pH 8.0, 30 min): 99.6
- assay of esomeprazole and omeprazole according to pH ([1]; buffer pH 8.0, 45 min): 99.5
- assay of esomeprazole and omeprazole according to pH ([1]; buffer pH 8.0, 60 min): 99.5
- assay of esomeprazole and omeprazole according to pH ([1]; buffer pH 8.0, 120 min): 98.6
SMILES: COc1ccc2[nH]c([S+]([O-])Cc3ncc(C)c(OC)c3C)nc2c1 (centres unmarked) [Omeprazole, 5-methoxy-2-[(4-methoxy-3,5-dimethyl-2-pyridinyl)methyl]sulfinyl-1H-benzimidazol]

- assay of esomeprazole and omeprazole according to pH ([1]; buffer pH 4.0, 5 min): 64.1
- assay of esomeprazole and omeprazole according to pH ([1]; buffer pH 4.0, 10 min): 31.0
- assay of esomeprazole and omeprazole according to pH ([1]; buffer pH 4.0, 15 min): 15.9
- assay of esomeprazole and omeprazole according to pH ([1]; buffer pH 4.0, 30 min): 6.9
- assay of esomeprazole and omeprazole according to pH ([1]; buffer pH 4.0, 45 min): 1.7
- assay of esomeprazole and omeprazole according to pH ([1]; buffer pH 4.0, 60 min): 0.9
- assay of esomeprazole and omeprazole according to pH ([1]; buffer pH 4.0, 120 min): 0.1
- assay of esomeprazole and omeprazole according to pH ([1]; buffer pH 6.0, 5 min): 74.4
- assay of esomeprazole and omeprazole according to pH ([1]; buffer pH 6.0, 10 min): 72.8
- assay of esomeprazole and omeprazole according to pH ([1]; buffer pH 6.0, 15 min): 71.0
- assay of esomeprazole and omeprazole according to pH ([1]; buffer pH 6.0, 30 min): 68.9
- assay of esomeprazole and omeprazole according to pH ([1]; buffer pH 6.0, 45 min): 66.3
- assay of esomeprazole and omeprazole according to pH ([1]; buffer pH 6.0, 60 min): 63.6
- assay of esomeprazole and omeprazole according to pH ([1]; buffer pH 6.0, 120 min): 54.9
- assay of esomeprazole and omeprazole according to pH ([1]; buffer pH 6.8, 5 min): 95.6
- assay of esomeprazole and omeprazole according to pH ([1]; buffer pH 6.8, 10 min): 90.8
- assay of esomeprazole and omeprazole according to pH ([1]; buffer pH 6.8, 15 min): 90.5
- assay of esomeprazole and omeprazole according to pH ([1]; buffer pH 6.8, 30 min): 89.7
- assay of esomeprazole and omeprazole according to pH ([1]; buffer pH 6.8, 45 min): 88.9
- assay of esomeprazole and omeprazole according to pH ([1]; buffer pH 6.8, 60 min): 88.3
- assay of esomeprazole and omeprazole according to pH ([1]; buffer pH 6.8, 120 min): 86.2
- assay of esomeprazole and omeprazole according to pH ([1]; buffer pH 7.0, 5 min): 99.6
- assay of esomeprazole and omeprazole according to pH ([1]; buffer pH 7.0, 10 min): 99.0
- assay of esomeprazole and omeprazole according to pH ([1]; buffer pH 7.0, 15 min): 99.3
- assay of esomeprazole and omeprazole according to pH ([1]; buffer pH 7.0, 30 min): 98.9
- assay of esomeprazole and omeprazole according to pH ([1]; buffer pH 7.0, 45 min): 98.7
- assay of esomeprazole and omeprazole according to pH ([1]; buffer pH 7.0, 60 min): 98.1
- assay of esomeprazole and omeprazole according to pH ([1]; buffer pH 7.0, 120 min): 96.8
- assay of esomeprazole and omeprazole according to pH ([1]; buffer pH 7.3, 5 min): 100.1
- assay of esomeprazole and omeprazole according to pH ([1]; buffer pH 7.3, 10 min): 100.1
- assay of esomeprazole and omeprazole according to pH ([1]; buffer pH 7.3, 15 min): 100.0
- assay of esomeprazole and omeprazole according to pH ([1]; buffer pH 7.3, 30 min): 100.0
- assay of esomeprazole and omeprazole according to pH ([1]; buffer pH 7.3, 45 min): 100.0
- assay of esomeprazole and omeprazole according to pH ([1]; buffer pH 7.3, 60 min): 100.0
- assay of esomeprazole and omeprazole according to pH ([1]; buffer pH 7.3, 120 min): 99.90
- assay of esomeprazole and omeprazole according to pH ([1]; buffer pH 7.5, 5 min): 99.4
- assay of esomeprazole and omeprazole according to pH ([1]; buffer pH 7.5, 10 min): 99.3
- assay of esomeprazole and omeprazole according to pH ([1]; buffer pH 7.5, 15 min): 99.2
- assay of esomeprazole and omeprazole according to pH ([1]; buffer pH 7.5, 30 min): 99.1
- assay of esomeprazole and omeprazole according to pH ([1]; buffer pH 7.5, 45 min): 99.3
- assay of esomeprazole and omeprazole according to pH ([1]; buffer pH 7.5, 60 min): 99.1
- assay of esomeprazole and omeprazole according to pH ([1]; buffer pH 7.5, 120 min): 98.2
- assay of esomeprazole and omeprazole according to pH ([1]; buffer pH 8.0, 15 min): 101.1
- assay of esomeprazole and omeprazole according to pH ([1]; buffer pH 8.0, 30 min): 100.9
- assay of esomeprazole and omeprazole according to pH ([1]; buffer pH 8.0, 45 min): 100.7
- assay of esomeprazole and omeprazole according to pH ([1]; buffer pH 8.0, 60 min): 100.7
- assay of esomeprazole and omeprazole according to pH ([1]; buffer pH 8.0, 120 min): 100.0
SMILES: COc1ccc2[nH]c([S@@+]([O-])Cc3ncc(C)c(OC)c3C)nc2c1 [S-omeprazole, (S)-5-methoxy-2-[(4-methoxy-3,5-dimethyl-2-pyridinyl)-methyl]sulfinyl-1H-benzimidazol]

- dose of sodium bicarbonate that can neutralize 200 mL of simulated gastric juice to show neutral pH ([2]; 200 mL simulated gastric juice): at least 600 mg
- pH of simulated gastric juice ([2]; sodium bicarbonate 500 mg): 5.77
- pH of simulated gastric juice ([2]; sodium bicarbonate 600 mg): 6.51
- pH of simulated gastric juice ([2]; sodium bicarbonate 700 mg): 7.30
- pH of simulated gastric juice ([2]; sodium bicarbonate 800 mg): 7.30
- pH of simulated gastric juice ([2]; sodium bicarbonate 900 mg): 7.31
- pH of simulated gastric juice ([2]; sodium bicarbonate 1,000 mg): 7.37
- pH of simulated gastric juice ([2]; sodium bicarbonate 1,100 mg): 7.38
- pH of simulated gastric juice ([2]; sodium bicarbonate 1,200 mg): 7.38
- pH of simulated gastric juice ([2]; sodium bicarbonate 1,300 mg): 7.40
SMILES: O=C([O-])O.[Na+] [sodium bi-carbonate, sodium bicarbonate]
